Experimental data as given in US7138361B2, “Herbicidal heterocycles” (E. I. du Pont de Nemours and Company, priority 2000, dated 2006).

Tests used:
Type in all cases: in vivo
[1] = system: Sunflower; test: Test C preemergence; conditions: Rate 250 g/ha, visual evaluation after 12 to 14 days
[2] = system: pigweed (Amaranthus retroflexus); test: Test B postemergence; conditions: 13 to 15 days
Procedure, shortened: (§1)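 Preemergence: seeds planted and treated with test chemicals in non-phytotoxic solvent with surfactant; postemergence on plants 2–18 cm (1- to 4-leaf stage). Kept in greenhouse 13–15 days, then visually rated against controls on a 0 (no effect) to 100 (complete control) scale.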

[3] = system: Surinam grass (Brachiaria decumbens); test: Test B postemergence; conditions: 13 to 15 days
Procedure, shortened: as §1

[4] = system: blackgrass (Alopecurus myosuroides); test: Test B postemergence; conditions: 13 to 15 days
Procedure, shortened: as §1

[5] = system: morning glory (Ipomoea hederacea); test: Test B postemergence; conditions: 13 to 15 days
Procedure, shortened: as §1

[6] = system: velvetleaf (Abutilon theophrasti); test: Test B postemergence; conditions: 13 to 15 days
Procedure, shortened: as §1

[7] = system: corn (Zea mays); test: Test B postemergence; conditions: 13 to 15 days
Procedure, shortened: as §1

[8] = system: barnyardgrass (Echinochloa crus-galli); test: Test B postemergence; conditions: 13 to 15 days
Procedure, shortened: as §1

[9] = system: wild oat (Avena fatua); test: Test B postemergence; conditions: 13 to 15 days
Procedure, shortened: as §1

[10] = system: cocklebur (Xanthium strumarium); test: Test B postemergence; conditions: 13 to 15 days
Procedure, shortened: as §1

[11] = system: giant foxtail (Setaria faberii); test: Test B postemergence; conditions: 13 to 15 days
Procedure, shortened: as §1

[12] = system: crabgrass (Digitaria sanguinalis); test: Test B postemergence; conditions: 13 to 15 days
Procedure, shortened: as §1

[13] = system: wheat (Triticum aestivum); test: Test B postemergence; conditions: 13 to 15 days
Procedure, shortened: as §1

[14] = system: lambsquarters (Chenopodium album); test: Test B postemergence; conditions: 13 to 15 days
Procedure, shortened: as §1

[15] = system: smallflower flatsedge (Cyperus difformis); test: Test C flooded paddy test; conditions: for Flatsedge plant response rating: Flooded Paddy, scale 0 to 100, 0 no effect, 100 complete control; for Plant response rating, Flatsedge: flooded paddy test, scale 0 to 100 (0 no effect, 100 complete control)
Procedure, shortened: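 Rice and three paddy weeds were grown to the 2-leaf stage under flooded conditions, then treated and kept in a greenhouse for 12–14 days. Response was rated visually against untreated controls on a 0–100 scale, where 100 is complete control.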

[16] = system: Sunflower; test: Test C preemergence; conditions: Rate 125 g/ha, scale 0 to 100, 0 no effect, 100 complete control
[17] = system: pigweed (Amaranthus retroflexus); test: Test B preemergence
Procedure, shortened: as §1

[18] = system: Surinam grass (Brachiaria decumbens); test: Test B preemergence
Procedure, shortened: as §1

[19] = system: morning glory (Ipomoea hederacea); test: Test B preemergence
Procedure, shortened: as §1

[20] = system: velvetleaf (Abutilon theophrasti); test: Test B preemergence
Procedure, shortened: as §1

[21] = system: corn (Zea mays); test: Test B preemergence
Procedure, shortened: as §1

[22] = system: barnyardgrass (Echinochloa crus-galli); test: Test B preemergence
Procedure, shortened: as §1

[23] = system: rice (Oryza saliva); test: Test B preemergence
Procedure, shortened: as §1

[24] = system: cocklebur (Xanthium strumarium); test: Test B preemergence
Procedure, shortened: as §1

[25] = system: giant foxtail (Setaria faberii); test: Test B preemergence
Procedure, shortened: as §1

[26] = system: crabgrass (Digitaria sanguinalis); test: Test B preemergence
Procedure, shortened: as §1

[27] = system: lambsquarters (Chenopodium album); test: Test B preemergence
Procedure, shortened: as §1

[28] = Rate 125 g/ha, scale 0 (no effect) to 100 (complete control)
[29] = Rate 500 g/ha, scale 0 to 100, 0 is no effect, 100 is complete control
[30] = Preemergence, Rate 500 g/ha, scale 0 to 100, 0 no effect, 100 complete control
[31] = preemergence, Rate 125 g/ha, scale of 0 to 100 where 0 is no effect and 100 is complete control, 13 to 15 days

CC(C)(C)c1ccn(C2CCN(c3cccc(OC(F)(F)F)c3)C2=O)n1 (stereo not drawn) [Compound 49]
50: Plant response rating, Lambsquarters [14, 29]
90: Plant response rating, Surinam grass [3, 29] | Plant response rating, Foxtail, Giant [25, 30]
60: Plant response rating, Blackgrass [4, 29]
30: Plant response rating (0 to 100), Sunflower [1] | Plant response rating, Pigweed [2, 28] | Plant response rating, Pigweed [2, 29] | Plant response rating, Morningglory [5, 29] | Plant response rating, Wild Oat [9, 29] | Plant response rating, Cocklebur [10, 29] | Plant response rating, Lambsquarters [14, 28] | Plant response rating, Morningglory [19, 30]
40: Plant response rating, Velvetleaf [6, 29] | Plant response rating, Crabgrass [12, 29]
20: Plant response rating, Sunflower [16] | Plant response rating, Rice [23, 30]
0: Plant response rating, Surinam grass [3, 28] | Plant response rating, Blackgrass [4, 28] | Plant response rating, Morningglory [5, 28] | Plant response rating, Velvetleaf [6, 28] | Plant response rating, Corn [7, 28] | Plant response rating, Corn [7, 29] | Plant response rating, Barnyardgrass [8, 28] | Plant response rating, Wild Oat [9, 28] | Plant response rating, Cocklebur [10, 28] | Plant response rating, Foxtail, Giant [11, 28] | Plant response rating, Foxtail, Giant [11, 29] | Plant response rating, Crabgrass [12, 28] | Plant response rating, Wheat [13, 28] | Plant response rating, Wheat [13, 29] | Plant response rating, Surinam grass [18, 30] | Plant response rating, Surinam grass [18, 31] | Plant response rating, Morningglory [19, 31] | Plant response rating, Velvetleaf [20, 30] | Plant response rating, Velvetleaf [20, 31] | Plant response rating, Corn [21, 30] | Plant response rating, Corn [21, 31] | Plant response rating, Rice [23, 31] | Plant response rating, Cocklebur [24, 30] | Plant response rating, Cocklebur [24, 31] | Plant response rating, Foxtail, Giant [25, 31] | Plant response rating, Crabgrass [26, 30] | Plant response rating, Crabgrass [26, 31]
80: Plant response rating, Barnyardgrass [8, 29]
100: Flatsedge plant response rating ([15]; Rate 250 g/ha) | Flatsedge plant response rating ([15]; Rate 500 g/ha) | Plant response rating, Flatsedge ([15]; Rate 62 g/ha) | Plant response rating, Flatsedge ([15]; Rate 125 g/ha) | Plant response rating, Pigweed [17, 30] | Plant response rating, Pigweed [17, 31] | Plant response rating, Barnyardgrass [22, 30] | Plant response rating, Barnyardgrass [22, 31] | Plant response rating, Lambsquarters [27, 30] | Plant response rating, Lambsquarters [27, 31]

O=C1C(n2ccc(C3CCCCC3)n2)SCN1c1cccc(OC(F)(F)F)c1 (stereo not drawn) [Compound 50]
80: Plant response rating, Lambsquarters [14, 29] | Plant response rating, Flatsedge ([15]; Rate 62 g/ha)
30: Plant response rating (0 to 100), Sunflower [1] | Plant response rating, Crabgrass [12, 28] | Plant response rating, Sunflower [16] | Plant response rating, Surinam grass [18, 30]
70: Plant response rating, Lambsquarters [14, 28]
0: Plant response rating, Pigweed [2, 28] | Plant response rating, Pigweed [2, 29] | Plant response rating, Surinam grass [3, 28] | Plant response rating, Surinam grass [3, 29] | Plant response rating, Blackgrass [4, 28] | Plant response rating, Blackgrass [4, 29] | Plant response rating, Morningglory [5, 28] | Plant response rating, Morningglory [5, 29] | Plant response rating, Velvetleaf [6, 28] | Plant response rating, Velvetleaf [6, 29] | Plant response rating, Corn [7, 28] | Plant response rating, Corn [7, 29] | Plant response rating, Barnyardgrass [8, 28] | Plant response rating, Wild Oat [9, 28] | Plant response rating, Wild Oat [9, 29] | Plant response rating, Cocklebur [10, 28] | Plant response rating, Foxtail, Giant [11, 28] | Plant response rating, Wheat [13, 28] | Plant response rating, Wheat [13, 29] | Plant response rating, Pigweed [17, 30] | Plant response rating, Pigweed [17, 31] | Plant response rating, Surinam grass [18, 31] | Plant response rating, Morningglory [19, 30] | Plant response rating, Morningglory [19, 31] | Plant response rating, Corn [21, 30] | Plant response rating, Corn [21, 31] | Plant response rating, Barnyardgrass [22, 31] | Plant response rating, Rice [23, 30] | Plant response rating, Rice [23, 31] | Plant response rating, Cocklebur [24, 30] | Plant response rating, Cocklebur [24, 31] | Plant response rating, Lambsquarters [27, 31]
20: Plant response rating, Foxtail, Giant [25, 31]
90: Plant response rating, Barnyardgrass [8, 29] | Flatsedge plant response rating ([15]; Rate 250 g/ha) | Plant response rating, Flatsedge ([15]; Rate 125 g/ha) | Plant response rating, Barnyardgrass [22, 30] | Plant response rating, Lambsquarters [27, 30]
100: Flatsedge plant response rating ([15]; Rate 500 g/ha) | Plant response rating, Velvetleaf [20, 30] | Plant response rating, Velvetleaf [20, 31] | Plant response rating, Foxtail, Giant [25, 30] | Plant response rating, Crabgrass [26, 30] | Plant response rating, Crabgrass [26, 31]
50: Plant response rating, Cocklebur [10, 29] | Plant response rating, Foxtail, Giant [11, 29] | Plant response rating, Crabgrass [12, 29]

O=C1C(n2ccc(C3CCCCC3)n2)OCN1c1cccc(C(F)(F)F)c1 (stereo not drawn) [Compound 51]
80: Plant response rating, Pigweed [2, 29] | Plant response rating, Lambsquarters [14, 28] | Plant response rating, Barnyardgrass [22, 30] | Plant response rating, Barnyardgrass [22, 31]
90: Plant response rating, Lambsquarters [14, 29] | Plant response rating, Flatsedge ([15]; Rate 125 g/ha)
40: Plant response rating, Flatsedge ([15]; Rate 62 g/ha)
0: Plant response rating, Pigweed [2, 28] | Plant response rating, Surinam grass [3, 28] | Plant response rating, Surinam grass [3, 29] | Plant response rating, Blackgrass [4, 28] | Plant response rating, Blackgrass [4, 29] | Plant response rating, Morningglory [5, 28] | Plant response rating, Morningglory [5, 29] | Plant response rating, Velvetleaf [6, 28] | Plant response rating, Velvetleaf [6, 29] | Plant response rating, Corn [7, 28] | Plant response rating, Corn [7, 29] | Plant response rating, Barnyardgrass [8, 28] | Plant response rating, Barnyardgrass [8, 29] | Plant response rating, Wild Oat [9, 28] | Plant response rating, Wild Oat [9, 29] | Plant response rating, Cocklebur [10, 28] | Plant response rating, Cocklebur [10, 29] | Plant response rating, Foxtail, Giant [11, 28] | Plant response rating, Foxtail, Giant [11, 29] | Plant response rating, Crabgrass [12, 28] | Plant response rating, Wheat [13, 28] | Plant response rating, Wheat [13, 29] | Plant response rating, Sunflower [16] | Plant response rating, Pigweed [17, 31] | Plant response rating, Surinam grass [18, 31] | Plant response rating, Morningglory [19, 30] | Plant response rating, Morningglory [19, 31] | Plant response rating, Velvetleaf [20, 30] | Plant response rating, Velvetleaf [20, 31] | Plant response rating, Corn [21, 30] | Plant response rating, Corn [21, 31] | Plant response rating, Rice [23, 30] | Plant response rating, Rice [23, 31] | Plant response rating, Cocklebur [24, 30] | Plant response rating, Cocklebur [24, 31] | Plant response rating, Foxtail, Giant [25, 31]
50: Plant response rating, Foxtail, Giant [25, 30]
100: Flatsedge plant response rating ([15]; Rate 250 g/ha) | Flatsedge plant response rating ([15]; Rate 500 g/ha) | Plant response rating, Pigweed [17, 30] | Plant response rating, Crabgrass [26, 30] | Plant response rating, Crabgrass [26, 31] | Plant response rating, Lambsquarters [27, 30] | Plant response rating, Lambsquarters [27, 31]
20: Plant response rating, Crabgrass [12, 29] | Plant response rating, Surinam grass [18, 30]
30: Plant response rating (0 to 100), Sunflower [1]
